In brackets after ≈: the same amount, converted by molar mass.
Experiments:
S. aureus = assay: Minimum Inhibitory Concentration (MIC) testing, terfenadine study; type: cell-based; conditions: Staphylococcus aureus, 16 h
S. aureus DNA gyrase = target: T1, S. aureus DNA gyrase (Staphylococcus aureus, UniProt P0A0K8+P20831); assay: S. aureus DNA gyrase supercoiling assay (TopoGEN); type: biochemical
T1 construct: purchased TopoGEN
Procedure: Reactions were incubated at 37° C. for 30 min and then stopped by the addition of 10% SDS, filtered through 0.025 μm Millipore membrane filters in a 10 mM Tris-HCl buffer (pH 8), and electrophoresed in a 1% agarose TAE gel. Gels were stained with 0.5 μg/ml ethidium bromide and images were analyzed using densitometry (Image J, NIH).

T1 sequence (P0A0K8 whole entry): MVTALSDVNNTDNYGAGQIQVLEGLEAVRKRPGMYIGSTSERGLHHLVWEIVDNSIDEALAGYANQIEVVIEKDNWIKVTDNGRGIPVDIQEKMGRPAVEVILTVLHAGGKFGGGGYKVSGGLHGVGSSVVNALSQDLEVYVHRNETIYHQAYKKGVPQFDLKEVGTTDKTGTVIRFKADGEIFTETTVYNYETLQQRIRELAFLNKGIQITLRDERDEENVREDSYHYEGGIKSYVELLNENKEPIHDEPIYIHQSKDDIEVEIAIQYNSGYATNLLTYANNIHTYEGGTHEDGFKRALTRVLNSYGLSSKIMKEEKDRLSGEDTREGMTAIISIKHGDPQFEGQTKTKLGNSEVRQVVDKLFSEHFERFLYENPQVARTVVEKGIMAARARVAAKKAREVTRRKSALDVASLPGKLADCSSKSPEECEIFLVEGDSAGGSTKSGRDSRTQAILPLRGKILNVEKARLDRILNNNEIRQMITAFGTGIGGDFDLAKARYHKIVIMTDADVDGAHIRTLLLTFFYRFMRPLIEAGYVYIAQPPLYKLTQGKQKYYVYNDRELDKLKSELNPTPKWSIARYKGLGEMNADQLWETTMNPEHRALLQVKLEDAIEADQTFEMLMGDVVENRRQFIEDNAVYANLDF
T1 sequence (P20831 whole entry): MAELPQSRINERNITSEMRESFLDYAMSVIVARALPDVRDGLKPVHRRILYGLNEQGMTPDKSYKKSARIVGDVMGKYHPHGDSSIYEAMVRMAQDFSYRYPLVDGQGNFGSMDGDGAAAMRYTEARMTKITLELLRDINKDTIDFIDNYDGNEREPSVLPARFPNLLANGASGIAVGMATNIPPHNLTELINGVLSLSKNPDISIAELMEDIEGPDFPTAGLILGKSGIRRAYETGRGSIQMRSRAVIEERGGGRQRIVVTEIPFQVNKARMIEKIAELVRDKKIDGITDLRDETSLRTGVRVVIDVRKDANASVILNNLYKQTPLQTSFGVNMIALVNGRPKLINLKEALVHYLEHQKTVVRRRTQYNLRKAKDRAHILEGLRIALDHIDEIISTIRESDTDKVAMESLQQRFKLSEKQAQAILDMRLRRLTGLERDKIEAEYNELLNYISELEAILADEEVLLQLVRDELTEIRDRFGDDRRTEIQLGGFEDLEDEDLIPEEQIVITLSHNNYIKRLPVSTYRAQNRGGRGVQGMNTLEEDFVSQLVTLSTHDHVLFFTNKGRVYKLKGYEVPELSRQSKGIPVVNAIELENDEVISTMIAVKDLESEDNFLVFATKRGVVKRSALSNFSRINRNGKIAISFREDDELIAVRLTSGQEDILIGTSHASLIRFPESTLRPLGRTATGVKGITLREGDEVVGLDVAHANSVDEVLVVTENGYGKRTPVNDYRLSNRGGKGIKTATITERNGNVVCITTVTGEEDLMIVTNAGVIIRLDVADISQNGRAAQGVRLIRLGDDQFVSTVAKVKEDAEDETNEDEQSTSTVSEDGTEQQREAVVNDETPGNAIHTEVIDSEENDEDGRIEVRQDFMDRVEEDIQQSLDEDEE

| SMILES | MIC (S. aureus) | IC50 (S. aureus DNA gyrase) |
| --- | --- | --- |
| CC(C)(C)c1ccc(C(O)CCCCN2CCC(C(O)(c3ccccc3)c3ccccc3)CC2)cc1 (stereo not drawn) [Compound 2, 1-(4-(tert-butyl)phenyl)-5-(4-(hydroxydiphenylmethyl)piperidin-1-yl)pentan-1-ol] | 16 µg/mL (≈ 32.9 µM) | 206 µM |
| OC(CCCN1CCC(C(O)(c2ccccc2)c2ccccc2)CC1)c1ccc(Cl)cc1 (stereo not drawn) [Compound 4, 1-(4-chlorophenyl)-4-(4-(hydroxydiphenylmethyl)piperidin-1-yl)butan-1-ol] | 64 µg/mL (≈ 142 µM) | 296 µM |
| OC(CCCN1CCC(C(O)(c2ccccc2)c2ccccc2)CC1)c1ccccc1 (stereo not drawn) [Compound 6, 4-(4-(hydroxydiphenylmethyl)piperidin-1-yl)-1-phenylbutan-1-ol] | 256 µg/mL (≈ 616 µM) | > 1200 µM |
| COc1ccc(C(O)CCCN2CCC(C(O)(c3ccccc3)c3ccccc3)CC2)cc1 (stereo not drawn) [Compound 7, 4-(4-(hydroxydiphenylmethyl)piperidin-1-yl)-1-(4-methoxyphenyl)butan-1-ol] | 256 µg/mL (≈ 575 µM) | > 1120 µM |
| OC(CCCN1CCC(C(O)(c2ccccc2)c2ccccc2)CC1)c1ccc(F)cc1 (stereo not drawn) [Compound 8, 1-(4-fluorophenyl)-4-(4-(hydroxydiphenylmethyl)piperidin-1-yl)butan-1-ol] | 128 µg/mL (≈ 295 µM) | > 1150 µM |
| OC(CCCN1CCC(C(O)(c2ccccc2)c2ccccc2)CC1)c1ccc(Br)cc1 (stereo not drawn) [Compound 9, 1-(4-bromophenyl)-4-(4-(hydroxydiphenylmethyl)piperidin-1-yl)butan-1-ol] | 32 µg/mL (≈ 64.7 µM) | > 1010 µM |
| CC(C)(C)c1ccc(CCCCN2CCC(C(O)(c3ccccc3)c3ccccc3)CC2)cc1 [Compound 10, (1-(4-(4-(tert-butyl)phenyl)butyl)piperidin-4-yl)diphenylmethanol] | 8 µg/mL (≈ 17.6 µM) | 205 µM |
| Cc1ccc(C(O)CCCN2CCC(C(O)(c3ccccc3)c3ccccc3)CC2)cc1 (stereo not drawn) [Compound 14, 4-(4-(hydroxydiphenylmethyl)piperidin-1-yl)-1-(p-tolyl)butan-1-ol] | 128 µg/mL (≈ 298 µM) | > 1160 µM |
| COC(=O)c1ccc(C(O)CCCN2CCC(C(O)(c3ccccc3)c3ccccc3)CC2)cc1 (stereo not drawn) [Compound 18, Methyl 4-(1-hydroxy-4-(4-(hydroxydiphenylmethyl)piperidin-1-yl)butyl)benzoate] | 256 µg/mL (≈ 541 µM) | 929 µM |
| O=C(O)c1ccc(C(O)CCCN2CCC(C(O)(c3ccccc3)c3ccccc3)CC2)cc1 (stereo not drawn) [Compound 19, 4-(1-hydroxy-4-(4-(hydroxydiphenylmethyl)piperidin-1-yl)butyl)benzoic acid] | > 256 µg/mL | > 1090 µM |
| CC(C)(C)c1ccc(C(=O)CCN2CCC(C(O)(c3ccccc3)c3ccccc3)CC2)cc1 [Compound 21, 1-(4-(tert-butyl)phenyl)-3-(4-(hydroxydiphenylmethyl)piperidin-1-yl)propan-1-one] | 32 µg/mL (≈ 70.2 µM) | 198 µM |
| CC(C)(C)c1ccc(CCCN2CCC(C(O)(c3ccccc3)c3ccccc3)CC2)cc1 [Compound 22, (1-(3-(4-(Tert-butyl)phenyl)propyl)piperidin-4-yl)diphenylmethanol] | 8 µg/mL (≈ 18.1 µM) | 211 µM |
| CC(C)(C)c1ccc(CCN2CCC(C(O)(c3ccccc3)c3ccccc3)CC2)cc1 [Compound 23, (1-(4-(Tert-butyl)phenethyl)piperidin-4-yl)diphenylmethanol] | 8 µg/mL (≈ 18.7 µM) | 218 µM |
| OC(CCCN1CCC(C(O)(c2ccccc2)c2ccccc2)CC1)c1ccc(-c2ccccc2)cc1 (stereo not drawn) [Compound 25, 1-([1,1′-biphenyl]-4-yl)-4-(4-(hydroxydiphenylmethyl)piperidin-1-yl)butan-1-ol] | 8 µg/mL (≈ 16.3 µM) | 27.1 µM |
| CC(C)(C)c1ccc(CN2CCC(C(O)(c3ccccc3)c3ccccc3)CC2)cc1 [Compound 26, (1-(4-(tert-butyl)benzyl)piperidin-4-yl)diphenylmethanol] | – | 218 µM |
| CC(C)(C)c1ccc(OCCCN2CCC(C(O)(c3ccccc3)c3ccccc3)CC2)cc1 [Compound 42, (1-(3-(4-(Tert-butyl)phenoxy)propyl)piperidin-4-yl)diphenylmethanol] | – | 219 µM |

Source: patent US10004701B2, “Methods and compositions for treating infection” (UNIVERSITY OF ROCHESTER, priority 2012, dated 2018)
